Experimental data published in patent US12599556B2, “Ophthalmic compositions” (BIOTHERAVISION, INC., priority 2021, dated 2026).

Experiment: Stability study: assay and related substances by gradient HPLC
Type: physicochemical
Description: The stability of the exemplary compositions was investigated using gradient high performance liquid chromatography analysis at different storage time points of 1 month, 3 months, 6 months, 9 months, and 11 months. The amount of each active ingredient and related degradation substances, pH, osmolality, particle size distribution, and viscosity were measured for each composition at each time point.
The suspension slurry was not irradiation sterilized in the preparation of Panel 1 formulations.
The results of the Panel II stability studies at the accelerated condition (40° C.) for the compositions shown in Table 4 are summarized in Table 6. The suspension slurry of Panel 2 formulations F7, F8, and F9 were irradiation sterilized.

Stability of ketorolac tromethamine in the compositions (all compositions of the stability studies) | Degradation of loteprednol etabonate (stability studies) | Compound
exhibited stability |  | O=C(c1ccccc1)c1ccc2n1CCC2C(=O)O (centres unmarked) [Ketorolac tromethamine, 2-amino-2-(hydroxymethyl)propane-1,3-diol; 5-benzoyl-2,3-dihydro-1H-pyrrolizine-1-carboxylic acid]
 | pH dependency | CCOC(=O)O[C@]1(C(=O)OCCl)CC[C@H]2[C@@H]3CCC4=CC(=O)C=C[C@]4(C)[C@H]3[C@@H](O)C[C@@]21C [loteprednol etabonate, chloromethyl (8S,9S,10R,11S,13S,14S,17R)-17-ethoxycarbonyloxy-11-hydroxy-10,13-dimethyl-3-oxo-7,8,9,11,12,14,15,16-octahydro-6H-cyclopenta[a]phenanthrene-17-carboxylate]
